Assay results taken from PMC10709440, “High-throughput ligand profile characterization in novel cell lines expressing seven heterologous insect olfactory receptors for the detection of volatile plant biomarkers” (Scientific Reports, 2023).
Read-outs that look alike come from different tables or passages of the source.

Legend:
[1] = biological target: T1, Drosophila OR98a (Drosophila melanogaster, UniProt Q9VAZ3); assay: Calcium ion fluorescence (GCaMP6) assay, OR98a stable HEK293 cell line; type: cell-based; settings: for Average response: average of biological replicates, fraction of VUAA1 response
T1 construct: expressed in transfected cells
T1 sequence (Q9VAZ3 1-397): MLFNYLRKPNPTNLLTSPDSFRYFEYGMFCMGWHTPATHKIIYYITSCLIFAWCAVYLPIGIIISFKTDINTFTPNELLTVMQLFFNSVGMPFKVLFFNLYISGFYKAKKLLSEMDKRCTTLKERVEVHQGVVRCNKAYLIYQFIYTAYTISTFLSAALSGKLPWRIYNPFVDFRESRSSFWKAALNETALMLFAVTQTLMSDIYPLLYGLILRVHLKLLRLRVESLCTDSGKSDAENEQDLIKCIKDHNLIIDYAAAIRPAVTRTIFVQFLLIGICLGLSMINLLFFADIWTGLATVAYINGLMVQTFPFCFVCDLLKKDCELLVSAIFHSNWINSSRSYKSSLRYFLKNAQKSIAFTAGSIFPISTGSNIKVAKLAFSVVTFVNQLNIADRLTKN
T1 sequence (Q9VNB5 1-486 partner): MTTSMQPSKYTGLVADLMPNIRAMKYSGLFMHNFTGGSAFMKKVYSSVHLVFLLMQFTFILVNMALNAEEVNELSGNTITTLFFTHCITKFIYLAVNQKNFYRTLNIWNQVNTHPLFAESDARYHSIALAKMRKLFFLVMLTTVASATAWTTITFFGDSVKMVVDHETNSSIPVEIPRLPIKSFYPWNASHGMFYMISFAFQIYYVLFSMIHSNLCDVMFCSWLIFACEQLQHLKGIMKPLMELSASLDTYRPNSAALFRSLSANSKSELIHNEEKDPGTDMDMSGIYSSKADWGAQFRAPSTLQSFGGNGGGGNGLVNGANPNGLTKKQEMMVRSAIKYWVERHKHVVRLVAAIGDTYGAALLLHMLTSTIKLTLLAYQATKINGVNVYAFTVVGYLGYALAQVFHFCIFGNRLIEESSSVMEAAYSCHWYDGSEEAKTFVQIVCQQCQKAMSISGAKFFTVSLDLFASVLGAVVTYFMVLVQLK
Procedure: (§1) These VUAA1 normalized ∆F values were used to compare the different receptors and ligands.
(§2) The concentration-dependent effect of the reference ligands on their cognate cell lines was examined in more detail. Twelve different ligand concentrations were measured on each cell line in an overall 0.01 μM to 100 μM concentration range with 5 repetitions with three technical replicates each time.
(§3) Twelve thousand to 18,000 cells were plated into each well of a black wall, transparent bottom 384-well microplate (Greiner) 48 h or 72 h before the measurements and were simultaneously treated with 1 μg/mL doxycycline. […] The plate has 24 columns, thus we could record responses in up to eight different cell lines in each plate. On the day of the experiment, the growth medium was replaced with 20 µL assay buffer/well (140 mM NaCl, 5 mM KCl, 2 mM CaCl2, 1 mM MgCl2, 5 mM HEPES-Na, 20 mM glucose, pH 7.3, 340 mOsm). […] Baseline fluorescence (F0) was recorded for 5 s, after which 7 µL VOC buffer (140 mM NaCl, 5 mM KCl, 2 mM CaCl2, 1 mM MgCl2, 5 mM HEPES-Na, 31 mM glucose, 0.1% DMSO, pH 7.3, 340 mOsm) was injected into each well in one row and the fluorescence response was recorded for an additional 30 s, at a rate of one read/sec. VOC solutions (VOC buffer with 4× concentration of the final measured VOC concentration, 9 µL/well was injected) were measured on the same wells in a second round with the same protocol. Each individual concentration of a specific VOC sample was recorded in three wells for the same cell line on the same microplate. The raw data were exported in xls file format, F0 and FMAX values, and the fluorescence intensity changes (∆F) were calculated in Excel (Microsoft) (Supplementary file Data summary.xlsx) using the following equation: ΔF=FMAX-F0/F0 (see also Fig. 1C). On each plate, we recorded the response of each cell line to 50 µM VUAA1. The average of these ∆F values of each cell line were used to calculate the VUAA1-normalized values for the rest of the plate, by dividing VOC response ∆F values by the average VUAA1 response ∆F value of the corresponding OR cell line. Each VOC-OR combination was measured three times as technical replicates. […] The average of these replicates were used as one ∆F and VUAA1-normalized ∆F in the following analysis.
(§4) In the next rows we tested the reference VOCs (or other VOCs known to activate the corresponding cell lines), in order to test if all cell lines are responsive. The remaining rows were used to test VOCs with unknown effect.
(§5) The recorded FMAX, F0, ∆F, VUAA1-normalized ∆F values, as well as the OR name, the name of the tested sample, and the final concentration for each well were copied into supplementary file Data summary.xlsx, that was used to summarize all the plates recorded. Here, the averages of the measurements were calculated for each receptor-VOC-concentration combination.

[2] = biological target: T2, Drosophila OR13a (Drosophila melanogaster, UniProt Q9VXL0); assay: Calcium ion fluorescence (GCaMP6) assay, OR13a stable HEK293 cell line; type: cell-based
T2 construct: expressed in transfected cells
T2 sequence (Q9VXL0 1-418): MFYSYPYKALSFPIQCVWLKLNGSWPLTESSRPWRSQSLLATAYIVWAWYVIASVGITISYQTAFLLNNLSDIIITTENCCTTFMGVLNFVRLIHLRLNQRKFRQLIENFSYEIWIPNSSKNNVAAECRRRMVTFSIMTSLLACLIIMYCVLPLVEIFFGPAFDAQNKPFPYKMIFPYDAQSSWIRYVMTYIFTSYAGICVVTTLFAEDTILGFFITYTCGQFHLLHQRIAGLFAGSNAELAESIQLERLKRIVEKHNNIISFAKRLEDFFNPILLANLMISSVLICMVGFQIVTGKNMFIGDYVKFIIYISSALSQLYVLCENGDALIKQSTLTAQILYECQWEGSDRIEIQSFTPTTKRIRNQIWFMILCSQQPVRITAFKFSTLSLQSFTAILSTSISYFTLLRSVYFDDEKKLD
T2 sequence (Q9VNB5 1-486 partner): T1 sequence (Q9VNB5 1-486 partner)
Procedure: as §1, §2, §3, §4, §5

[3] = HEK293, read-out: Average response
[4] = HEK293, read-out: OR98a response (VUAA1-normalized response)
[5] = ligand concentration 1 (unit not given), threshold 0.05, below shown as 0
[6] = ligand concentration 10 (unit not given), threshold 0.05, below shown as 0
[7] = ligand concentration 100 (unit not given), threshold 0.05, below shown as 0
[8] = HEK293, read-out: OR13a Average response (VUAA1-normalized), 1 μM VOC, 50 μM VUAA1 = 1, responses not exceeding 0.05 considered 0
[9] = HEK293, read-out: OR13a Average response (VUAA1-normalized), 10 μM VOC, 50 μM VUAA1 = 1, responses not exceeding 0.05 considered 0
[10] = HEK293, read-out: OR13a Average response (VUAA1-normalized), 100 μM VOC, 50 μM VUAA1 = 1, responses not exceeding 0.05 considered 0
[11] = HEK293, read-out: OR13a response (VUAA1-normalized response), VOC concentration 1 μM
[12] = HEK293, read-out: OR13a response (VUAA1-normalized response), VOC concentration 10 μM
[13] = HEK293, read-out: OR13a response (VUAA1-normalized response), VOC concentration 100 μM
[14] = concentration 1, normalized fluorescence change, values below 0.05 threshold given as 0
[15] = concentration 10, normalized fluorescence change, values below 0.05 threshold given as 0
[16] = concentration 100, normalized fluorescence change, values below 0.05 threshold given as 0
[17] = HEK293, read-out: OR98a Average response (VUAA1-normalized)

SMILES | activation at 1 µM [1, 3] [%] | activation at 10 µM [1, 3] [%] | activation at 100 µM [1, 3] [%] | activation at 1 µM [1, 4] [%] | activation at 10 µM [1, 4] [%] | activation at 100 µM [1, 4] [%] | DF norm AVERAGE OR98a [1, 5] | DF norm AVERAGE OR98a [1, 6] | DF norm AVERAGE OR98a [1, 7] | activation at 1 µM [2, 8] [%] | activation at 10 µM [2, 9] [%] | activation at 100 µM [2, 10] [%] | activation at 1 µM [2, 11] [%] | activation at 10 µM [2, 12] [%] | activation at 100 µM [2, 13] [%] | DF norm AVERAGE OR13a [2, 5] | DF norm AVERAGE OR13a [2, 6] | DF norm AVERAGE OR13a [2, 7] | OR98a response (VUAA1-normalized response) ([1]; VOC concentration 1 μM) | OR98a response (VUAA1-normalized response) ([1]; VOC concentration 10 μM) | other results
C=C1CCC2CC1C2(C)C (stereo not drawn) [beta-pinene] | 19 | 17 | 1.89 | 19 | 17 | 0 | 0.1942 | 0.1655 | 0 | 8 | 0 | 3.25 | 8 | 0 | 0 | 0.08064 | 0 | 0 | – | – | –
C=C1CCC2(C(C)C)CC12 (stereo not drawn) [sabinene] | 0 | 10 | 2 | – | – | – | 0 | 0.1017 | 0 | 0 | 0 | 0 | – | – | – | 0 | 0 | 0 | – | – | OR98a response (VUAA1-normalized) at 1 μM ([1]; OR98a cell line, VOC concentration 1 μM): 0.00; OR98a response (VUAA1-normalized) at 10 μM ([1]; OR98a cell line, VOC concentration 10 μM): 0.10; OR98a response (VUAA1-normalized) at 100 μM ([1]; OR98a cell line, VOC concentration 100 μM): 0.00; OR13a response (VUAA1-normalized) at 1 μM ([2]; OR13a cell line, VOC concentration 1 μM): 0.00; OR13a response (VUAA1-normalized) at 10 μM ([2]; OR13a cell line, VOC concentration 10 μM): 0.00; OR13a response (VUAA1-normalized) at 100 μM ([2]; OR13a cell line, VOC concentration 100 μM): 0.00
CC1=CCC[C@@]2(C)[C@@H]3CC[C@]12CC3(C)C [(−)-α-neoclovene] | – | – | – | – | – | – | – | – | – | – | – | – | – | – | – | – | – | – | 0.15 | 0.00 | OR98a response (VUAA1-normalized response) ([1]; VOC concentration 100 μM): 0.00; Average response ([1]; cc. 1 µM, OR98a cell line): 0.15; Average response ([1]; cc. 10 µM, OR98a cell line): 0.00; Average response ([1]; cc. 100 µM, OR98a cell line): 0.0421; DF norm AVERAGE OR98a [1, 14]: 0.1483; DF norm AVERAGE OR98a [1, 15]: 0; DF norm AVERAGE OR98a [1, 16]: 0; OR13a Average response (VUAA1-normalized) ([2]; 1 μM VOC, 50 μM VUAA1 = 1, responses not exceeding 0.05 considered 0): 0.0436; OR13a Average response (VUAA1-normalized) ([2]; 10 μM VOC, 50 μM VUAA1 = 1, responses not exceeding 0.05 considered 0): 0.00; OR13a Average response (VUAA1-normalized) ([2]; 100 μM VOC, 50 μM VUAA1 = 1, responses not exceeding 0.05 considered 0): 0.00; OR13a response (VUAA1-normalized response) ([2]; VOC concentration 1 μM): 0.00; OR13a response (VUAA1-normalized response) ([2]; VOC concentration 10 μM): 0.00; OR13a response (VUAA1-normalized response) ([2]; VOC concentration 100 μM): 0.00; DF norm AVERAGE OR13a [2, 14]: 0; DF norm AVERAGE OR13a [2, 15]: 0; DF norm AVERAGE OR13a [2, 16]: 0
CC/C=C\CCO [E-3-hexenol] | – | – | – | – | – | – | – | – | – | – | – | – | – | – | – | – | – | – | 0.00 | 0.00 | OR98a response (VUAA1-normalized response) ([1]; VOC concentration 100 μM): 0.00; OR13a response (VUAA1-normalized response) ([2]; VOC concentration 1 μM): 0.00; OR13a response (VUAA1-normalized response) ([2]; VOC concentration 10 μM): 0.00; OR13a response (VUAA1-normalized response) ([2]; VOC concentration 100 μM): 0.07
CCCCCC(C)=O [2-heptanone] | 7 | 1.68 | 11 | 7 | 0 | 11 | – | – | – | 0 | 2.36 | 1.75 | 0 | 0 | 0 | – | – | – | – | – | activation at 1 µM [1, 17]: 7%; activation at 10 µM [1, 17]: 2%; activation at 100 µM [1, 17]: 11%; DF norm AVERAGE OR98a [1, 14]: 0.06738; DF norm AVERAGE OR98a [1, 15]: 0; DF norm AVERAGE OR98a [1, 16]: 0.1149; DF norm AVERAGE OR13a [2, 14]: 0; DF norm AVERAGE OR13a [2, 15]: 0; DF norm AVERAGE OR13a [2, 16]: 0
